In patent US20220362138A1, “Oral Care Compositions and Methods of Use” (Colgate-Palmolive Company, priority 2020, published 2022) one finds PGE2 data, which are given here for one compound.

The experiment has as its system IL-1 β mediated PGE2 in HEPM monolayer cells. The experiment in a line: IL-1β mediated PGE2 suppression, HEPM monolayer cell model. It is filed as cell-based. Particulars: cells treated with IL-1 β. From the text:
IL-1 β Mediated PGE2 Suppression with Gymnema sylvestre Treatment (Cell Model)
PGE2, a marker of inflammation, can be increased via administration of IL-1 β. Samples are subjected to the HEPM monolayer cell model assay. […]

For the compound `Oc1cc(Cl)ccc1Oc1ccc(Cl)cc1Cl` [Triclosan], the PGE2 reads like this: (0.0005%) 715.9 pg/mL; (0.001%) 520.9 pg/mL.
